Each block holds one compound with its values, some of them ahead of it.
Tests used:
[1] = molecular target: T1, Octopine dehydrogenase (OcDH) (Pecten maximus, UniProt Q9BHM6); test: 1H-15N TROSY-HSQC NMR titration of OcDH saturated with […] NADH; format: binding
T1 construct: gene odh1; OcDH-His5, U-[15N] labeled

[2] = molecular target: T1, Octopine dehydrogenase (OcDH); test: 1H-15N TROSY-HSQC NMR titration; also present in the OcDH/NADH/agmatine crystal structure; format: binding
[3] = molecular target: T1, Octopine dehydrogenase (OcDH); test: 1H-15N TROSY-HSQC NMR titration; format: binding
[4] = molecular target: T2, Octopine dehydrogenase (OcDH) (Pecten maximus, UniProt Q9BHM6); test: X-ray crystal structure ([…] Å, soak) of OcDH/NADH/agmatine; Ki from enzyme inhibition (Lineweaver-Burk); format: biochemical
T2 construct: gene odh1; OcDH-His5, residues 2–404 in the model
T2 sequence (Q9BHM6 1-399): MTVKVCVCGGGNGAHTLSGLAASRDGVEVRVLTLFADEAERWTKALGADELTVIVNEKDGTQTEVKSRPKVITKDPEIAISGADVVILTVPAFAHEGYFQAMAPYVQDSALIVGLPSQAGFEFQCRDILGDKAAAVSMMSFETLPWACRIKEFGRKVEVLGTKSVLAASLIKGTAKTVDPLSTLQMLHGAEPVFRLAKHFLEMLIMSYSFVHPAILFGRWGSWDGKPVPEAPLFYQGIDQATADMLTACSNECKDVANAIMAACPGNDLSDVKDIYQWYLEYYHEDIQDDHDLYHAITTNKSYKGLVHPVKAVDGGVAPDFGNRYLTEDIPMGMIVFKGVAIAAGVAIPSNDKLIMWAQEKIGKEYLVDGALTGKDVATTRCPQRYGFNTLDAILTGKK

Structure (SMILES): N=C(N)NCCC[C@H](N)C(=O)O [L-arginine]
Kd [1]: 4.1 ± 0.31 mM

Kd [2]: 62 ± 7 µM
Structure (SMILES): NC(=O)C1=CN([C@@H]2O[C@H](COP(=O)(O)OP(=O)(O)OC[C@H]3O[C@@H](n4cnc5c(N)ncnc54)[C@H](O)[C@@H]3O)[C@@H](O)[C@H]2O)C=CC1 [NADH]

Kd [3]: 400 ± 50 µM
Structure (SMILES): NC(=O)c1ccc[n+]([C@@H]2O[C@H](COP(=O)([O-])OP(=O)(O)OC[C@H]3O[C@@H](n4cnc5c(N)ncnc54)[C@H](O)[C@@H]3O)[C@@H](O)[C@H]2O)c1 [NAD^+]

Structure (SMILES): N=C(N)NCCCCN [agmatine]
Ki [4]: 40 ± 2 mM
